Experimental data from patent US20220380338A1, “CYCLOALKYL 3-OXOPIPERAZINE CARBOXAMIDES AND CYCLOHETEROALKYL 3-OXOPIPERAZINE CARBOXAMIDES AS NAV1.8 INHIBITORS” (Merck Sharp & Dohme LLC, priority 2021, published 2022).

Biological target: T1, human NaV1.8 (Homo sapiens, UniProt Q9Y5Y9)
T1 construct: expressed in transfected cells
Test: Nav1.8 Qube® Assay (automated 384-well patch-clamp, inhibition of sodium current)
Format: cell-based
Details: human NaV1.8 channels stably expressed in HEK 293 cells, room temperature
Method in brief: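 Whole-cell voltage clamp at room temperature in HEK293 cells stably expressing NaV1.8; from −90 mV hold, 10 s 1 Hz train of 20 ms pulses to 10 mV with 980 ms repolarization to −67 mV. Peak currents of 1st and 10th pulses give resting and inactivated-state IC50s, Hill fit.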

T1 sequence (Q9Y5Y9 whole entry): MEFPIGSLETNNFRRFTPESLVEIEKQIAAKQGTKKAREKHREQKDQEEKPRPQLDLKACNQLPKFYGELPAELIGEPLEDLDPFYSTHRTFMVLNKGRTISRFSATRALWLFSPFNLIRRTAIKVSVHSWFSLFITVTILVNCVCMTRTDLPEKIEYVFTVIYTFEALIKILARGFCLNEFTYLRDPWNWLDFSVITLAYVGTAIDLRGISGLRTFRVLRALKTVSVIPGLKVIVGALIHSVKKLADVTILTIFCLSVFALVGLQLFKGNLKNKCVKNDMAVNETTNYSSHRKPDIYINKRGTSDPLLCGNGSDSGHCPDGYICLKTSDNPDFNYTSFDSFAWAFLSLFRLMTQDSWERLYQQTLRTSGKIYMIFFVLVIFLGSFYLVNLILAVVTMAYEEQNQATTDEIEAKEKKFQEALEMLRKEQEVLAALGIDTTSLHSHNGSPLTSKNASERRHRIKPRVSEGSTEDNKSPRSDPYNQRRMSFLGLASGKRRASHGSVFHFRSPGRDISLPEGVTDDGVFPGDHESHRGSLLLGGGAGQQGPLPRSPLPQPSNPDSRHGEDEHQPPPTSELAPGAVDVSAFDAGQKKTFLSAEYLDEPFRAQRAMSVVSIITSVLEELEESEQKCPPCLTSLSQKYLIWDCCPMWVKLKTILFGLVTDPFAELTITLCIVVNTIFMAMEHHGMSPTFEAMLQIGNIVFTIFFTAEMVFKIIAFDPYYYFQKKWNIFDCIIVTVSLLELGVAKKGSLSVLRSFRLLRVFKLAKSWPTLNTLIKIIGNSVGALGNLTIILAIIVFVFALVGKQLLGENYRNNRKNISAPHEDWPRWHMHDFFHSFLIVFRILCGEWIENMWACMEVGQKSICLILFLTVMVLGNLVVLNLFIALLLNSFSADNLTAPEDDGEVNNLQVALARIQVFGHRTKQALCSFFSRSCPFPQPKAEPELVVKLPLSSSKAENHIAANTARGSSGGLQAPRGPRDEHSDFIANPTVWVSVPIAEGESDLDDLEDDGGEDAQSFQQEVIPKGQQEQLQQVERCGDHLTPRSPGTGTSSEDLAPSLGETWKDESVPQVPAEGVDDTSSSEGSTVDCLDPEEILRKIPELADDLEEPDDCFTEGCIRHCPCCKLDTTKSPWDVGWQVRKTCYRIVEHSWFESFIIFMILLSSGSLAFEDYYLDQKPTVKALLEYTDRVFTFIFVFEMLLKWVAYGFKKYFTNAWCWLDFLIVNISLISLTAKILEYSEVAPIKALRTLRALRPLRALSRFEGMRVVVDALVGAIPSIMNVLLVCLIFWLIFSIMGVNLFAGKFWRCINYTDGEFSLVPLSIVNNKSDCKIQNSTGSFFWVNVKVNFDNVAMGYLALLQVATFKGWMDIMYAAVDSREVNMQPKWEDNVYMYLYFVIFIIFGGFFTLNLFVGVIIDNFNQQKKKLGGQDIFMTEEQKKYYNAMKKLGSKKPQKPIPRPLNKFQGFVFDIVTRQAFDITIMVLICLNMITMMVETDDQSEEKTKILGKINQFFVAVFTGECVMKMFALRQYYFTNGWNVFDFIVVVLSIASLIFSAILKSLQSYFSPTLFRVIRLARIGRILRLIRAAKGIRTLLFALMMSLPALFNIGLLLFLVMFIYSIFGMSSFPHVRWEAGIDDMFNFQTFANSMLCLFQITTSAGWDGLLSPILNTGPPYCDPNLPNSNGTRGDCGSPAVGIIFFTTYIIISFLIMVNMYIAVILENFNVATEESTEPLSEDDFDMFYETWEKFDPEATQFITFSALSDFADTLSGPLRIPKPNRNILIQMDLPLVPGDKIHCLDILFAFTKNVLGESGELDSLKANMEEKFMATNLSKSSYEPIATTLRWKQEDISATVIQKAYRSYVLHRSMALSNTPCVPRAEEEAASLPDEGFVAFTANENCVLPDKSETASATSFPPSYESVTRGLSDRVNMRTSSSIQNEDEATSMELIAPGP

Row | IC50 | SMILES
1 | 5.65 nM | C[C@@H]1C(=O)NCCN1C(=O)NC(c1ccc(F)c(Cl)c1F)C1CCC(C(F)(F)F)C1 (single isomer, unassigned) [Example 58B, (2R)—N—((R or S)-(3-chloro-2,4-difluorophenyl)(cis-3-(trifluoromethyl)cyclopentyl)methyl)-2-methyl-3-oxopiperazine-1-carboxamide]
2 | 5.1 nM | C[C@@H]1C(=O)NCCN1C(=O)NC(c1ccc(F)c(Cl)c1F)C1CCC(C(F)(F)F)C1 (single isomer, unassigned) [Example 58C, (2R)—N—((R or S)-(3-chloro-2,4-difluorophenyl)(trans-3-(trifluoromethyl)cyclopentyl)methyl)-2-methyl-3-oxopiperazine-1-carboxamide]
3 | 6.03 nM | C[C@@H]1C(=O)NCCN1C(=O)NC(c1ccc(F)c(Cl)c1F)C1CCC(C(F)(F)F)C1 (single isomer, unassigned) [Example 58D, (2R)—N—((R or S)-(3-chloro-2,4-difluorophenyl)(trans-3-(trifluoromethyl)cyclopentyl)methyl)-2-methyl-3-oxopiperazine-1-carboxamide]
4 | 2.6 nM | [2H]C1([2H])NC(=O)C(C)N(C(=O)N[C@H](c2ccc(F)c(Cl)c2F)[C@H]2C[C@H](C(F)(F)F)C2)C1([2H])[2H] (single isomer, unassigned) [Example 59A, (R or S)—N—((S)-(3-chloro-2,4-difluorophenyl)((trans)-3-(trifluoromethyl)cyclobutyl)methyl)-2-methyl-3-oxopiperazine-5,5,6,6-d4-1-carboxamide]
5 | 44 nM | [2H]C1([2H])NC(=O)C(C)N(C(=O)N[C@H](c2ccc(F)c(Cl)c2F)[C@H]2C[C@H](C(F)(F)F)C2)C1([2H])[2H] (single isomer, unassigned) [Example 59B, (S or R)—N—((S)-(3-chloro-2,4-difluorophenyl)((trans)-3-(trifluoromethyl)cyclobutyl)methyl)-2-methyl-3-oxopiperazine-5,5,6,6-d4-1-carboxamide]
6 | 10.1 nM | C[C@@H]1C(=O)NCCN1C(=O)NC(c1ccc(F)c(C(F)(F)F)c1)C1CCC(C(F)(F)F)OC1 (single isomer, unassigned) [Example 60A, (2R)—N-((1(R or S))-(4-fluoro-3-(trifluoromethyl)phenyl)-trans-(6-(trifluoromethyl)tetrahydro-2H-pyran-3-yl)methyl)-2-methyl-3-oxopiperazine-1-carboxamide]
7 | 51.2 nM | C[C@@H]1C(=O)NCCN1C(=O)NC(c1ccc(F)c(C(F)(F)F)c1)C1CCC(C(F)(F)F)OC1 (single isomer, unassigned) [Example 60B, (2R)—N-((1(R or S))-(4-fluoro-3-(trifluoromethyl)phenyl)-trans-(6-(trifluoromethyl)tetrahydro-2H-pyran-3-yl)methyl)-2-methyl-3-oxopiperazine-1-carboxamide]
8 | 3.2 nM | C[C@@H]1C(=O)NCCN1C(=O)NC(c1ccc(F)c(Cl)c1F)C1COc2ccccc2C1 (single isomer, unassigned) [Example 62A, (R)—N—((R or S)-(3-chloro-2,4-difluorophenyl)((R or S)-chroman-3-yl)methyl)-2-methyl-3-oxopiperazine-1-carboxamide]
9 | 358 nM | C[C@@H]1C(=O)NCCN1C(=O)NC(c1ccc(F)c(Cl)c1F)C1COc2ccccc2C1 (single isomer, unassigned) [Example 62B, (R)—N—((R or S)-(3-chloro-2,4-difluorophenyl)((S or R)-chroman-3-yl)methyl)-2-methyl-3-oxopiperazine-1-carboxamide]
10 | 488 nM | C[C@@H]1C(=O)NCCN1C(=O)NC(c1ccc(F)c(Cl)c1F)C1COc2ccccc2C1 (single isomer, unassigned) [Example 62C, (R)—N—((S or R)-(3-chloro-2,4-difluorophenyl)((R or S)-chroman-3-yl)methyl)-2-methyl-3-oxopiperazine-1-carboxamide]
11 | 0.8 nM | C[C@@H]1C(=O)NCCN1C(=O)NC(c1ccc(F)c(Cl)c1F)C1COc2ccccc2C1 (single isomer, unassigned) [Example 62D, (R)—N—((S or R)-(3-chloro-2,4-difluorophenyl)((S or R)-chroman-3-yl)methyl)-2-methyl-3-oxopiperazine-1-carboxamide]
12 | 1.8 nM | O=C1NCCN(C(=O)N[C@H](c2ccc(F)c(Cl)c2F)[C@H]2C[C@H](C(F)(F)F)C2)C1C(F)(F)F (single isomer, unassigned) [Example 63A, (R or S)—N—((S)-(3-chloro-2,4-difluorophenyl)((trans)-3-(trifluoromethyl)cyclobutyl)methyl)-3-oxo-2-(trifluoromethyl)piperazine-1-carboxamide]
13 | 9.1 nM | O=C1NCCN(C(=O)N[C@H](c2ccc(F)c(Cl)c2F)[C@H]2C[C@H](C(F)(F)F)C2)C1C(F)(F)F (single isomer, unassigned) [Example 63B, (S or R)—N—((S)-(3-chloro-2,4-difluorophenyl)((trans)-3-(trifluoromethyl)cyclobutyl)methyl)-3-oxo-2-(trifluoromethyl)piperazine-1-carboxamide]
14 | 191 nM | C[C@@H]1C(=O)NCCN1C(=O)N[C@@H](c1ccc(F)c(Cl)c1F)[C@H]1C[C@H](C(F)(F)F)C1 [Example 20B, (R)—N—((R)-(3-chloro-2,4-difluorophenyl)(trans-3-(trifluoromethyl)cyclobutyl)methyl)-2-methyl-3-oxopiperazine-1-carboxamide]
15 | 6.82 nM | O=C1CN(C(=O)N[C@H](c2ccc(F)c(Cl)c2F)[C@H]2C[C@H](C(F)(F)F)C2)CCN1 [Example 26, N—((S)-(3-chloro-2,4-difluorophenyl)(trans-3-(trifluoromethyl)cyclobutyl)methyl)-3-oxopiperazine-1-carboxamide]
16 | 0.7 nM | [2H][C@@]1(CF)C(=O)NCCN1C(=O)N[C@H](c1ccc(F)c(Cl)c1F)[C@H]1C[C@H](C(F)(F)F)C1 [Example 61, (S)—N—((S)-(3-chloro-2,4-difluorophenyl)((trans)-3-(trifluoromethyl)cyclobutyl)methyl)-2-(fluoromethyl)-3-oxopiperazine-2-d-1-carboxamide]
17 | 3.2 nM | O=C1NCCN(C(=O)N[C@H](c2ccc(F)c(Cl)c2F)[C@H]2C[C@H](C(F)(F)F)C2)[C@@H]1CO [Example 64, (R)—N—((S)-(3-chloro-2,4-difluorophenyl)((trans)-3-(trifluoromethyl)cyclobutyl)methyl)-2-(hydroxymethyl)-3-oxopiperazine-1-carboxamide]
